Assay results reported in patent publication US9896441B2 (Lycera Corporation, priority 2014, dated 2018).

Assays:
Gal4-RORγ-LBD = target: T1, Gal4-RORγ-LBD (Homo sapiens, UniProt P51449); assay: Gal4-RORγ Luciferase Reporter Assay in HEK-293T Cells; type: cell-based; details: HEK-293 cells; for Gal4-RORγ Assay Max Response: maximum response
T1 construct: expressed in transfected cells
T1 sequence (P51449 269-508 limits assumed): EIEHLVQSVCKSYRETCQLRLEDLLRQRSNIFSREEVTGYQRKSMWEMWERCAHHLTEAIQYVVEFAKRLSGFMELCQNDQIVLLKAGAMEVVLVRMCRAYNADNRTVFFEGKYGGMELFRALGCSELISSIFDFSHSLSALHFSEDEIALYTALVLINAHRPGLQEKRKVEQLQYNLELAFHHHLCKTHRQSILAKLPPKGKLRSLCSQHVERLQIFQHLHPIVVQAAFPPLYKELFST
Summary of the method: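 HEK-293 cells were co-transfected with Gal4-RORγ-LBD and a Gal4-luciferase reporter, then exposed overnight at 37 °C to compounds with […] ursolic acid present (0.2% DMSO). Luminescence was read with One-Glo after 10 min at RT, untreated signal was set as 100, and Max Response was taken as the upper plateau of a 4-parameter logistic fit.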

RORγ-LBD = target: T2, RORγ-LBD (Homo sapiens, UniProt P51449); assay: RORγ-Ligand Binding Domain (LBD) TR-FRET Assay; type: biochemical; details: for TR-FRET Assay Max Response: maximum response;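 as to TR-FRET Assay Max Response: 665/615 nm signal ratio set to 100 without ursolic acid or test compound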
T2 construct: made in house; host or cells: SF9 cells (baculovirus); used as diluted lysate
T2 sequence (P51449 269-508 limits assumed): T1 sequence (P51449 269-508 limits assumed)
Summary of the method: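 This TR-FRET coactivator assay pairs baculovirus-expressed His-RORγ-LBD (~3 nM final) with biotin-SRC1 LXXLL peptide at 200 nM final in pH 7.0 Tris/KCl/EDTA/DTT/BSA buffer.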

[1] = luciferase reporter, in presence of ursolic acid
[2] = ursolic acid present, luciferase readout
[3] = with 2 μM ursolic acid (RORγ antagonist), highest test concentration 10 μM

Compound | EC50 (Gal4-RORγ-LBD; [1]) [µM] | Gal4-RORγ Assay Max Response (Gal4-RORγ-LBD; [1]) | EC50 (RORγ-LBD; RORγ-LBD TR-FRET assay) [µM] | TR-FRET Assay Max Response (RORγ-LBD; RORγ-LBD TR-FRET assay) | EC50 (Gal4-RORγ-LBD; [2]) [µM] | EC50 (RORγ-LBD; [3]) [µM]
C/C(=C\c1ccc2c(c1)N(S(=O)(=O)c1cccc(C(F)(F)F)c1)C[C@H](CCNS(C)(=O)=O)O2)c1c(F)cccc1Cl [Example 114, (S,E)-N-(2-(6-(2-(2-Chloro-6-fluorophenyl)prop-1-en-1-yl)-4-((3-(trifluoromethyl)phenyl)sulfonyl)-3,4-dihydro-2H-benzo[b][1,4]oxazin-2-yl)ethyl)methanesulfonamide] | < 0.5 | ** (a value in the range of greater than 90 to 150) | < 0.5 | *** (a value in the range of greater than 150 to 200) |  | 
C/C(=C\c1ccc2c(c1)N(S(=O)(=O)c1cccc(C(F)(F)F)c1)C[C@H](CCNC(=O)C(C)(C)O)O2)c1c(F)cccc1Cl [Example 115, (S,E)-N-(2-(6-(2-(2-Chloro-6-fluorophenyl)prop-1-en-1-yl)-4-((3-(trifluoromethyl)phenyl)sulfonyl)-3,4-dihydro-2H-benzo[b][1,4]oxazin-2-yl)ethyl)-2-hydroxy-2-methylpropanamide] | < 0.5 | * (a value in the range of 30 to 90) | < 0.5 | *** (a value in the range of greater than 150 to 200) |  | 
C/C(=C\c1ccc2c(c1)N(S(=O)(=O)c1cccc(C(F)(F)F)c1)C[C@H](CCNS(=O)(=O)C1CC1)O2)c1c(F)cccc1Cl [Example 116A, (S,E)-N-(2-(6-(2-(2-chloro-6-fluorophenyl)prop-1-en-1-yl)-4-((3-(trifluoro-methyl)phenyl)-sulfonyl)-3,4-dihydro-2H-benzo[b][1,4]oxazin-2-yl)ethyl)cyclopropane-sulfonamide] | < 0.5 | ** (a value in the range of greater than 90 to 150) | < 0.5 | *** (a value in the range of greater than 150 to 200) |  | 
COc1cc(S(=O)(=O)N2C[C@H](CCNC(C)=O)Oc3ccc(/C=C(\C)c4c(F)cccc4Cl)cc32)ccc1F [Example 116B, (S,E)-N-(2-(6-(2-(2-chloro-6-fluorophenyl)prop-1-en-1-yl)-4-((4-fluoro-3-methoxyphenyl)-sulfonyl)-3,4-dihydro-2H-benzo[b][1,4]oxazin-2-yl)ethyl)acetamide] | < 0.5 | * (a value in the range of 30 to 90) | < 0.5 | *** (a value in the range of greater than 150 to 200) |  | 
CCOC(=O)C(=O)NCC[C@H]1CN(S(=O)(=O)c2ccc(F)c(OC)c2)c2cc(/C=C(\C)c3c(F)cccc3Cl)ccc2O1 [Example 116C, ethyl (S,E)-2-((2-(6-(2-(2-chloro-6-fluorophenyl)prop-1-en-1-yl)-4-((4-fluoro-3-methoxyphenyl)sulfonyl)-3,4-dihydro-2H-benzo[b][1,4]oxazin-2-yl)ethyl)amino)-2-oxoacetate] | 0.5 to 5 | ** (a value in the range of greater than 90 to 150) | < 0.5 | *** (a value in the range of greater than 150 to 200) |  | 
COc1cc(S(=O)(=O)N2C[C@H](CCNC(=O)[C@H](C)O)Oc3ccc(/C=C(\C)c4c(F)cccc4Cl)cc32)ccc1F [Example 116D, (S)-N-(2-((S)-6-((E)-2-(2-chloro-6-fluorophenyl)prop-1-en-1-yl)-4-((4-fluoro-3-methoxyphenyl)sulfonyl)-3,4-dihydro-2H-benzo[b][1,4]oxazin-2-yl)ethyl)-2-hydroxypropanamide] | < 0.5 | ** (a value in the range of greater than 90 to 150) | < 0.5 | *** (a value in the range of greater than 150 to 200) |  | 
CCn1cc(S(=O)(=O)N2C[C@H](CCNC(C)=O)Oc3ccc(/C=C(\C)c4c(F)cccc4Cl)cc32)c(Cl)n1 [Example 116E, (S,E)-N-(2-(4-((3-chloro-1-ethyl-1H-pyrazol-4-yl)sulfonyl)-6-(2-(2-chloro-6-fluorophenyl)-prop-1-en-1-yl)-3,4-dihydro-2H-benzo[b][1,4]oxazin-2-yl)ethyl)acetamide] | < 0.5 | ** (a value in the range of greater than 90 to 150) | < 0.5 | *** (a value in the range of greater than 150 to 200) |  | 
C/C(=C\c1ccc2c(c1)N(S(=O)(=O)c1cccc(C(F)(F)F)c1)C[C@H](NC(=O)C(C)(C)O)C2)c1c(F)cccc1Cl [Example 116F, (R,E)-N-(7-(2-(2-chloro-6-fluorophenyl)prop-1-en-1-yl)-1-((3-(trifluoromethyl)-phenyl)sulfonyl)-1,2,3,4-tetrahydroquinolin-3-yl)-2-hydroxy-2-methylpropanamide] | 0.5 to 5 | * (a value in the range of 30 to 90) | < 0.5 | *** (a value in the range of greater than 150 to 200) |  | 
C/C(=C\c1ccc2c(c1)N(S(=O)(=O)c1cccc(C(F)(F)F)c1)C[C@@H](NC(=O)C(C)(C)O)C2)c1c(F)cccc1Cl [Example 116G, (S,E)-N-(7-(2-(2-chloro-6-fluorophenyl)prop-1-en-1-yl)-1-((3-(trifluoromethyl)-phenyl)sulfonyl)-1,2,3,4-tetrahydroquinolin-3-yl)-2-hydroxy-2-methylpropanamide] | < 0.5 | * (a value in the range of 30 to 90) | < 0.5 | *** (a value in the range of greater than 150 to 200) |  | 
C/C(=C\c1ccc2c(c1)N(S(=O)(=O)c1cccc(C(F)(F)F)c1)C[C@H](NS(C)(=O)=O)C2)c1c(F)cccc1Cl [Example 116H, (R,E)-N-(7-(2-(2-chloro-6-fluorophenyl)prop-1-en-1-yl)-1-((3-(trifluoromethyl)phenyl)-sulfonyl)-1,2,3,4-tetra-hydroquinolin-3-yl)methanesulfonamide] | < 0.5 | ** (a value in the range of greater than 90 to 150) | < 0.5 | *** (a value in the range of greater than 150 to 200) |  | 
C/C(=C\c1ccc2c(c1)N(S(=O)(=O)c1cccc(C(F)(F)F)c1)C[C@@H](NS(C)(=O)=O)C2)c1c(F)cccc1Cl [Example 116I, (S,E)-N-(7-(2-(2-chloro-6-fluorophenyl)prop-1-en-1-yl)-1-((3-(trifluoromethyl)phenyl)-sulfonyl)-1,2,3,4-tetrahydroquinolin-3-yl)methanesulfonamide] | 0.5 to 5 | ** (a value in the range of greater than 90 to 150) | < 0.5 | *** (a value in the range of greater than 150 to 200) |  | 
C/C(=C\c1ccc2c(c1)N(S(=O)(=O)c1cccc(C(F)(F)F)c1)[C@H](C)[C@H](NS(C)(=O)=O)C2)c1c(F)cccc1Cl [Example 116J, N-((2R,3R)-7-((E)-2-(2-chloro-6-fluorophenyl)prop-1-en-1-yl)-2-methyl-1-((3-(trifluoromethyl)phenyl)sulfonyl)-1,2,3,4-tetra-hydroquinolin-3-yl)methanesulfonamide] | 0.5 to 5 | *** (a value in the range of greater than 150 to 200) | < 0.5 | *** (a value in the range of greater than 150 to 200) |  | 
COc1cc(S(=O)(=O)N2C[C@H](CCNC(=O)C(=O)O)Oc3ccc(/C=C(\C)c4c(F)cccc4Cl)cc32)ccc1F [Example 116K, (S,E)-2-((2-(6-(2-(2-chloro-6-fluorophenyl)prop-1-en-1-yl)-4-((4-fluoro-3-methoxyphenyl)sulfonyl)-3,4-dihydro-2H-benzo[b][1,4]-oxazin-2-yl)ethyl)amino)-2-oxoacetic acid] | 0.5 to 5 | ** (a value in the range of greater than 90 to 150) | < 0.5 | *** (a value in the range of greater than 150 to 200) |  | 
C/C(=C\c1ccc2c(c1)N(S(=O)(=O)c1cccc(C(F)(F)F)c1)C[C@H](CNC(=O)N1CCOCC1)O2)c1c(F)cccc1Cl [Example 116N, (S,E)-N-((6-(2-(2-chloro-6-fluorophenyl)prop-1-en-1-yl)-4-((3-(trifluoromethyl)phenyl)sulfonyl)-3,4-dihydro-2H-benzo[b][1,4]-oxazin-2-yl)methyl)morpholine-4-carboxamide] |  |  |  |  | < 0.5 | < 0.5
C/C(=C\c1ccc2c(c1)N(S(=O)(=O)c1cccc(C(F)(F)F)c1)C[C@H](CNC(=O)N1CCC(C(=O)O)CC1)O2)c1c(F)cccc1Cl [Example 116O, (S,E)-1-(((6-(2-(2-chloro-6-fluorophenyl)prop-1-en-1-yl)-4-((3-(trifluoromethyl)phenyl)sulfonyl)-3,4-dihydro-2H-benzo[b][1,4]oxazin-2-yl)methyl)carbamoyl)piperidine-4-carboxyic acid] |  |  |  |  | < 0.5 | < 0.5
